Results: ChEMBL document CHEMBL5058564, “EUbOPEN Chemogenomics Library 2 (Incucyte)” (2022)

Legend:
Type in all cases: toxicity, cell-based
HEK-293T = test: Incucyte cell viability with HEK293T; settings: human, 10 µM, compound concentration 10 uM
Fibroblast = test: Incucyte cell viability with human fibroblast; settings: 10 µM, compound concentration 10 uM
U2OS = test: Incucyte cell viability with U2OS; settings: human, 10 µM, compound concentration 10 uM
[1] = 0 h, replicate number 1, timepoint 0 hours
[2] = 0 h, replicate number 2, timepoint 0 hours
[3] = 6 h, replicate number 1, timepoint 6 hours
[4] = 12 h, replicate number 1, timepoint 12 hours
[5] = 18 h, replicate number 1, timepoint 18 hours
[6] = 24 h, replicate number 1, timepoint 24 hours
[7] = 6 h, replicate number 2, timepoint 6 hours
[8] = 12 h, replicate number 2, timepoint 12 hours
[9] = 18 h, replicate number 2, timepoint 18 hours
[10] = 24 h, replicate number 2, timepoint 24 hours
Note: unitless GR value; below 1 slowed growth and below 0 cell loss.

Compound | Growth Rate (HEK-293T; [1]) | Growth Rate (HEK-293T; [2]) | Growth Rate (HEK-293T; [3]) | Growth Rate (HEK-293T; [5]) | Growth Rate (HEK-293T; [6]) | Growth Rate (Fibroblast; [1]) | Growth Rate (Fibroblast; [7]) | Growth Rate (Fibroblast; [8]) | Growth Rate (Fibroblast; [5]) | Growth Rate (Fibroblast; [9]) | Growth Rate (Fibroblast; [6]) | Growth Rate (U2OS; [2]) | Growth Rate (U2OS; [8]) | Growth Rate (U2OS; [5]) | Growth Rate (Fibroblast; [2]) | Growth Rate (Fibroblast; [3]) | Growth Rate (Fibroblast; [4]) | Growth Rate (U2OS; [4]) | Growth Rate (U2OS; [9]) | Growth Rate (U2OS; [3]) | other results
N[C@](CC1c2ccccc2Oc2ccccc21)(C(=O)O)[C@H]1C[C@@H]1C(=O)O | 0.78 | -1 | 0.42 | 0.57 | 0.69 | 0.29 | 0.73 | 0.93 | 0.9 | 0.82 | 0.68 | 0.8 | 0.92 | 0.9 | – | – | – | – | – | – | Growth Rate (HEK-293T; [4]): 0.5; Growth Rate (Fibroblast; [10]): 0.88
Cc1cc(-c2ccc3c(c2)CC[C@H]3N2CC3(CCN(C(=O)Cc4cn5cc(C)sc5n4)CC3)C2)ncn1 [PF-5190457] | – | 0.77 | – | 0.98 | – | – | – | 0.88 | 0.37 | – | 0.57 | -0.98 | 0.99 | 0.94 | 0.62 | -0.34 | 0.22 | – | – | – | –
O=C(O)CCn1c2c(c3ccccc31)C[C@H](NS(=O)(=O)c1ccc(F)cc1)CC2 [RAMATROBAN] | – | – | – | – | – | -0.24 | 0.99 | – | – | – | – | -1 | 0.9 | 0.98 | 0.9 | – | – | 0.75 | 0.9 | – | Growth Rate (HEK-293T; [7]): 0.71; Growth Rate (HEK-293T; [4]): 0.91; Growth Rate (HEK-293T; [8]): 0.72; Growth Rate (HEK-293T; [9]): 0.76; Growth Rate (U2OS; [6]): 0.97
CC(C)Oc1ccc(-c2c[nH]cc2CN(C)CCO)cc1 | 0.59 | 0.6 | – | – | 1 | 0.53 | – | – | – | – | – | 0.69 | – | 0.71 | 0.41 | – | – | 0.45 | – | 0.97 | Growth Rate (U2OS; [1]): -0.46; Growth Rate (U2OS; [6]): 0.94
COc1ccccc1N1CCN(C[C@@H](C(=O)NC(C)(C)C)c2ccccc2)CC1.Cl.Cl | 0.89 | – | – | – | – | – | 0.96 | – | 1 | – | 0.57 | -0.77 | – | 0.77 | 0.48 | 0.54 | 0.69 | – | 0.92 | 0.29 | Growth Rate (HEK-293T; [7]): 0.54; Growth Rate (HEK-293T; [8]): 0.79; Growth Rate (U2OS; [10]): 1
CCc1nn2c(C)cc(C)nc2c1Cc1ccc(-c2nnc(C3CCNCC3)o2)cc1 | – | 0.38 | 0.9 | 0.88 | – | – | 0.22 | 0.37 | -0.43 | 0.56 | -0.25 | 0.09 | – | – | – | -0.59 | -0.55 | – | – | – | Growth Rate (Fibroblast; [10]): 0.65
CC(C)c1cc(-c2ccc(F)c3ccccc23)nc(N)n1 | 0.46 | 0.76 | – | – | – | -0.03 | – | – | 0.4 | – | 0.62 | -0.96 | – | 0.86 | – | 0.51 | 0.58 | 0.81 | 0.79 | 0.62 | Growth Rate (HEK-293T; [7]): 0.72; Growth Rate (U2OS; [7]): 0.83; Growth Rate (U2OS; [6]): 0.73; Growth Rate (U2OS; [10]): 0.89
CCC(=O)NC[C@@H]1C[C@H]1c1cccc2c1CCO2 [TASIMELTEON] | 0.74 | 0.1 | 0.74 | 0.92 | 0.79 | – | 0.26 | 0.49 | 0.69 | 0.76 | 0.48 | -0.06 | 0.81 | – | 0.97 | 0.35 | 0.48 | 0.97 | 0.96 | 0.85 | Growth Rate (HEK-293T; [9]): 0.94; Growth Rate (HEK-293T; [10]): 0.99; Growth Rate (Fibroblast; [10]): 0.82; Growth Rate (U2OS; [1]): -0.37; Growth Rate (U2OS; [7]): 0.51; Growth Rate (U2OS; [10]): 0.96
